Values quoted from earlier work, collected in patent US20090053319A1 (priority 2007, published 2009).

Conditions: pure capsaicinoid; background statement

With COc1cc(CNC(=O)CCCC/C=C/C(C)C)ccc1O [Capsaicin] as the molecule, how does the “pungency (Scoville scale)” value read?
Its value is 15,000,000-16,000,000 Scoville units.
